Reference: patent US20140336182A1, “Aurora Kinase Modulators and Method of Use” (Amgen Inc., priority 2013, published 2014)

Test system: HeLa cells
Assay: HeLa cell 24 hr ploidy assay (DNA content)
Type: cell-based
Conditions: HeLa cells, 4N ploidy, average, read-out: 24h_4NPloidy EC50_IP (uM Avg)
Method in brief: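 DNA content measured by Hoechst 33342 nuclear staining (0.5 ug/ml, 45 min RT) and high-content imaging of fixed HeLa cells after 24 h compound exposure in 0.25% DMSO. Fractions of 4N and >4N cells fitted to dose curves giving EC50 IP, EC50 transit, Max and Min.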

`c1ccc(-c2nnc(Nc3ccc(Sc4ccnc5cccnc45)cc3)c3ccccc23)cc1` [compound 309] gave an EC50 of 0.021 µM.
With `c1ccc(-c2nnc(Nc3ccc(Sc4ccnc5cccnc45)cc3)c3ccccc23)cc1` [compound 285] the EC50 was 0.009 µM.

Same assay, conditions: Homo sapiens, HeLa, 4N ploidy, average, read-out: 24h_4NPloidy EC50_IP (uM Avg)

First: Cc1ccc(-c2nnc(Nc3ccc(Oc4ccnc5cc(C#N)ccc45)cc3)c3ccccc23)cc1 [compound 88]
Second: Brc1ccc2c(Oc3ccc(Nc4nnc(-c5ccccc5)c5ccccc45)cc3)ccnc2c1 [compound 133]
The EC50 of the first is 19-fold lower: 0.006 µM for the first, 0.116 µM for the second.

Going from `COc1cc2nccc(Sc3ccc(Nc4nnc(-c5ccccc5)c5ccccc45)cc3)c2cc1OC` [compound 104] to `Fc1cc(Nc2nnc(-c3ccccc3)c3ccccc23)ccc1Oc1ccnc2ccccc12` [compound 115], the EC50 rises from 0.02 µM to 0.116 µM (5.8-fold). The first is the more potent here.

For `COc1ccc(F)cc1-c1nnc(Nc2ccc(Oc3ccnc4cc(C(N)=O)ccc34)cc2)c2ccccc12` [Example 47, 4-(4-(4-(5-fluoro-2-methoxyphenyl)phthalazin-1-ylamino)phenoxy)quinoline-7-carb oxamide], the EC50 was > 1.2 µM.

Same assay, conditions: Homo sapiens, HeLa, HeLa cells, 4N ploidy, average, read-out: 24h_4NPloidy EC50_IP (uM Avg)

Compared with `COc1cnc2c(Oc3ccc(Nc4nnc(-c5ccc(C)c(C)c5)c5ccccc45)cc3)ccnc2c1` [compound 192], `COc1cnc2c(Oc3ccc(Nc4nnc(-c5cccc(Cl)c5)c5ccccc45)cc3)ccnc2c1` [compound 219] is 6.2-fold higher in EC50: 0.005 µM for the first, 0.031 µM for the second. The first is the more potent here.

Going from `Cc1ccc(-c2nnc(Nc3ccc(Sc4ccnc5cc(C#N)oc45)cc3)c3ccccc23)cc1N` [compound 490] to `Cc1ccc(-c2nnc(Nc3ccc(Sc4ccnc5ccoc45)cc3)c3ccccc23)cn1` [compound 481], the EC50 rises from 0.009 µM to 0.032 µM (3.6-fold).

First: Cc1noc(-c2cc3nccc(Sc4ccc(Nc5nnc(-c6ccc(Cl)cc6)c6ccccc56)cc4)c3s2)n1 [compound 323]
Second: Cc1cc2nccc(Sc3ccc(Nc4nnc(-c5ccc(Cl)cc5)c5ccccc45)cc3)c2s1 [compound 559]
The EC50 of the first is 7.3-fold higher: 0.131 µM for the first, 0.018 µM for the second. The second is the more potent here.

Compared with `COc1cnc2c(Oc3ccc(Nc4nnc(-c5cccc(C(=O)N(C)C)c5)c5ccccc45)cc3)ccnc2c1` [compound 226], `CCc1ccc(-c2nnc(Nc3ccc(Oc4ccnc5cc(OC)cnc45)cc3)c3ccccc23)cc1` [compound 221] is lower in EC50: > 1.2 µM for the first, 0.015 µM for the second.

First: O=C(c1cc2nccc(Sc3ccc(Nc4nnc(-c5ccccc5)c5ccccc45)cc3)c2s1)N1CCOCC1 [compound 313]
Second: c1ccc(-c2nnc(Nc3ccc(Oc4ccnc5ccc(N6CCOCC6)cc45)cc3)c3ccccc23)cc1 [compound 264]
The EC50 of the first is 5.1-fold lower: 0.076 µM for the first, 0.387 µM for the second. The first is the more potent here.

Going from `COc1cc2nccc(Sc3ccc(Nc4nnc(-c5ccc(Cl)cc5)c5ccccc45)cc3)c2cn1` [compound 354] to `COc1ccc2c(Sc3ccc(Nc4nnc(-c5ccc(Cl)cc5)c5ccccc45)cc3)ccnc2c1` [compound 334], the EC50 rises from 0.007 µM to 0.018 µM (2.6-fold). The first is the more potent here.

First: COCCOc1cc(-c2nnc(Nc3ccc(Sc4ccnc5cc(OC)cnc45)cc3)c3ccccc23)ccc1Cl [compound 450]
Second: COc1cnc2c(Sc3ccc(Nc4nnc(-c5ccc(OC)nc5)c5ccccc45)cc3)ccnc2c1 [compound 583]
The EC50 of the first is 1.6-fold higher: 0.008 µM for the first, 0.005 µM for the second.

Going from `C#Cc1ccc(-c2nnc(Nc3ccc(Oc4ccnc5cc(OC)cnc45)cc3)c3ccccc23)cc1` [compound 287] to `COc1cnc2c(Oc3ccc(Nc4nnc(-c5ccc(C#N)cc5)c5ccccc45)cc3)ccnc2c1` [compound 181], the EC50 rises from 0.06 µM to 0.104 µM (1.7-fold). The first is the more potent here.

Going from `CCc1cc(-c2ccc(Cl)cc2)nnc1Nc1ccc(Oc2ccnc3cc(OC)cnc23)nc1` [compound 275, 6-(4-chlorophenyl)-4-ethyl-N-(6-(7-methoxy-1,5-naphthyridin-4-yloxy)pyridin-3-yl)pyridazin-3-amine] to `CCc1cc(-c2ccc(Cl)cc2)nnc1Nc1ccc(Oc2ccnc3cc(OC)cnc23)cc1` [compound 256], the EC50 falls from 0.161 µM to 0.049 µM (3.3-fold).

Compared with `COc1cnc2c(Oc3ccc(Nc4nnc(-c5ccccc5)c5c4CCC5)cc3)ccnc2c1` [compound 367], `COc1cnc2c(Oc3ccc(Nc4nnc(-c5sccc5C)c5ccccc45)cc3)ccnc2c1` [compound 185] is 6.2-fold higher in EC50: 0.039 µM for the first, 0.241 µM for the second. The first is the more potent here.

Compared with `COc1cc(OC)c2c(Oc3ccc(Nc4nnc(-c5ccc(Cl)cc5)c5ccccc45)cc3)ncnc2c1` [compound 590], `COc1ccc2c(Oc3ccc(Nc4nnc(-c5ccc(Cl)cc5)c5ccccc45)cc3)ccnc2c1` [compound 345] is 3.2-fold higher in EC50: 0.004 µM for the first, 0.013 µM for the second.

Compared with `COc1ccc2nccc(Oc3ccc(Nc4nnc(-c5cc(C)cs5)c5ccccc45)cc3)c2c1` [compound 269], `COc1ccc2nccc(Oc3ccc(Nc4nnc(-c5ccc(C)cn5)c5ccccc45)cc3)c2c1` [compound 554] is 6.8-fold higher in EC50: 0.016 µM for the first, 0.108 µM for the second. The first is the more potent here.

First: COc1cnc2c(Oc3ccc(Nc4nnc(-c5c(C)nn(C)c5C)c5ccccc45)cc3)ccnc2c1 [compound 261]
Second: COc1cnc2c(Oc3ccc(Nc4nnc(C#CC(C)(C)C)c5ccccc45)cc3)ccnc2c1 [Example 31, 4-(3,3-dimethylbut-1-ynyl)-N-(4-(7-methoxy-1,5-naphthyridin-4-yloxy)phenyl)phthalazin-1-amine]
The EC50 of the first is higher: > 1.2 µM for the first, 0.045 µM for the second. The second is the more potent here.

Compared with `COc1ccc2c(Oc3ccc(Nc4nnc(-c5ccc(C(F)(F)F)cc5)c5ccccc45)cc3)c(F)cnc2c1` [Example 39, N-(4-(3-fluoro-7-methoxyvquinolin-4-yloxy)phenyl)-4-(4-(trifluoromethyl)phenyl) phthalazin-1-amine], `COc1ccc2c(Oc3ccc(Nc4nnc(-c5ccccc5)c5ccccc45)cc3)c(F)cnc2c1` [compound 164] is lower in EC50: ≥ 1.2 µM for the first, 0.076 µM for the second. The second is the more potent here.

Compared with `COc1cnc2c(Sc3ccc(Nc4nnc(C#N)c5ccccc45)cc3)ccnc2c1` [Example 404, 4-(4-(7-Methoxy-1,5-naphthyridin-4-ylthio)phenylamino)phthalazine-1-carbonitrile], `CCOc1nnc(Nc2ccc(Sc3ccnc4cc(OC)cnc34)cc2)c2ccccc12` [compound 512] is 1.9-fold lower in EC50: 0.063 µM for the first, 0.033 µM for the second.

`COc1cnc2c(Oc3ccc(Nc4nnc(-c5cccc6[nH]ccc56)c5ccccc45)cc3)ccnc2c1` [compound 183] and `COc1cnc2c(Oc3ccc(Nc4nnc(-c5ccc(Cl)nc5)c5ccccc45)cc3)ccnc2c1` [compound 235, 4-(6-chloro-3-pyridinyl)-N-(4-((7-(methyloxy)-1,5-naphthyridin-4-yl)oxy)phenyl)-1-phthalazinamine] are within 1.5-fold of each other in EC50: 0.052 µM for the first, 0.058 µM for the second.

`c1ccc(-c2nnc(Nc3ccc(Cn4cnc5ccccc54)cc3)c3ccccc23)cc1` [compound 340] and `Clc1ccc(-c2nnc(Nc3ccc(Cn4cnc5ccccc54)cc3)c3ccccc23)cc1` [compound 341] cannot be ordered by EC50: ≥ 1.2 µM for the first, ≥ 1.2 µM for the second.

First: COc1cnc2c(Sc3ccc(Nc4nnc(-c5cc(C)cs5)c5ccccc45)cc3)ccnc2c1 [compound 271, N-(4-(7-methoxy-1,5-naphthyridin-4-ylthio)phenyl)-4-(4-methylthiophen-2-yl)phthalazin-1-amine]
Second: COc1cc2nccc(Sc3ccc(Nc4nnc(-c5cc(C)cs5)c5ccccc45)cc3)c2cn1 [compound 494]
The EC50 of the first is 2.2-fold lower: 0.004 µM for the first, 0.009 µM for the second.

First: O=C(Nc1cc(Oc2ccc(Nc3nnc(-c4ccccc4)c4ccccc34)cc2F)ccn1)N1CCOCC1 [compound 179]
Second: Cn1cc(-c2ccc3c(Oc4ccc(Nc5nnc(-c6ccccc6)c6ccccc56)cc4)ccnc3c2)cn1 [compound 338, N-(4-(7-(1-methyl-1H-pyrazol-4-yl)quinolin-4-yloxy)phenyl)-4-phenylphthalazin-1-amine]
The EC50 of the first is 45-fold higher: 0.226 µM for the first, 0.005 µM for the second.

`FC(F)(F)Oc1ccc2nccc(Sc3ccc(Nc4nnc(-c5ccccc5)c5ccccc45)cc3)c2c1` [compound 571] and `FC(F)(F)Oc1ccc2c(Sc3ccc(Nc4nnc(-c5ccccc5)c5ccccc45)cc3)ccnc2c1` [compound 497] are within 1.5-fold of each other in EC50: 0.06 µM for the first, 0.079 µM for the second.

First: COc1cnc2c(Sc3ccc(Nc4nnc(N5CCn6ncnc6C5)c5ccccc45)cc3)ccnc2c1 [compound 579]
Second: COc1cnc2c(Sc3ccc(Nc4nnc(N5CCN6CCCC[C@H]6C5)c5ccccc45)cc3)ccnc2c1 [compound 585]
The EC50 of the first is 3-fold higher: 0.054 µM for the first, 0.018 µM for the second.

Going from `COc1cnc2c(Oc3c(F)cc(Nc4nnc(-c5ccc(Cl)cc5)c5ccccc45)cc3F)ccnc2c1` [compound 454] to `COc1cnc2c(Oc3ccc(Nc4nnc(-c5ccc(C(F)(F)F)c(Cl)c5)c5ccccc45)cc3)ccnc2c1` [compound 172, 4-(3-chloro-4-(trifluoromethyl)phenyl)-N-(4-((7-(methyloxy)-1,5-naphthyridin-4-yl)oxy)phenyl)-1-phthalazinamine], the EC50 rises from 0.008 µM to 0.034 µM (4.2-fold). The first is the more potent here.

First: COc1cnc2c(Oc3ccc(Nc4nnc(-c5ccc6c(c5)CCO6)c5ccccc45)cc3)ccnc2c1 [compound 168, 4-(2,3-dihydro-1-benzofuran-5-yl)-N-(4-((7-(methyloxy)-1,5-naphthyridin-4-yl)oxy)phenyl)-1-phthalazinamine]
Second: c1cnc2c(Sc3ccc(Nc4nnc(-c5ccc6c(c5)CCO6)c5ccccc45)cc3)ccnc2c1 [compound 445]
The EC50 of the first is 7-fold higher: 0.007 µM for the first, 0.001 µM for the second.

First: CCc1cc(N2CCCCC2)nnc1Nc1ccc(Oc2ccnc3cc(OC)cnc23)cc1 [compound 321]
Second: CCc1cc(-c2ccc(C)cc2)nnc1Nc1ccc(Sc2ccnc3cc(OC)cnc23)cc1 [compound 322]
The EC50 of the first is higher: > 1.2 µM for the first, 0.017 µM for the second.

Going from `CCOc1nc(-c2nnc(Nc3ccc(Sc4ccnc5cc(OC)cnc45)cc3)c3ccccc23)cs1` [compound 505] to `Cc1cccc(-c2nnc(Nc3ccc(Sc4ccnc5cccnc45)cc3)c3ccccc23)n1` [compound 421], the EC50 rises from 0.022 µM to 0.051 µM (2.3-fold). The first is the more potent here.

First: N#Cc1ccc2c(Oc3ccc(Nc4nnc(-c5ccc(Cl)cc5)c5ccccc45)cc3)ccnc2c1 [compound 242]
Second: Cc1nc(-c2nnc(Nc3ccc(Oc4ccnc5cc(C#N)ccc45)cc3)c3ccccc23)sc1C [compound 277]
The EC50 of the first is 1.8-fold lower: 0.019 µM for the first, 0.035 µM for the second. The first is the more potent here.

First: Clc1ccc(-c2nnc(Nc3ccc(Sc4ccnc5ccoc45)cc3)c3ccccc23)cc1 [compound 465]
Second: N#Cc1cc2nccc(Sc3ccc(Nc4nnc(-c5ccc(Cl)cn5)c5ccccc45)cc3)c2s1 [compound 460]
The EC50 of the first is 2-fold lower: 0.02 µM for the first, 0.041 µM for the second. The first is the more potent here.

In the case of `COc1cc2nncc(Oc3ccc(Nc4nnc(-c5ccccc5)c5ccccc45)cc3)c2cc1OC` [compound 254], the EC50 is reported as > 1.2 µM.
